These results are taken from US20090253755A1, “N-[(PYRIDIN-2-YL) METHOXY] BENZAMIDE DERIVATIVES AND RELATED COMPOUNDS AS FUNGICIDES” (Bayer Cropscience SA, priority 2006, published 2009).

The subject of this experiment is Alternaria alternata. Briefly: Cell test on Alternaria alternata. The class given is cell-based. To be noted: under similar conditions (cell test, 2 ppm). The protocol:
Cell Test on Alternaria alternata
The growth of Alternaria alternata is performed on PDA medium at 20° C. under black light during 14 days. The PDA medium is prepared by mixing 39 grams of PDA (Merck) in 1 liter of demineralized water.
The medium is sterilized by autoclave 15 minutes at 121° C. After 14 days of growth, the spores of Alternaria alternata are recovered in sterilized water and the concentration of spores adjusted to 10^6 spores per ml.
The compounds is solubilized in DMSO and added to sterile liquid glucose/mycopeptone medium (14.6 g/l of D-glucose, 7.1 g/l of mycological peptone (Oxoid) and 1.4 g/l of yeast extract (Merck)) at a concentration of 2 ppm.
The medium is inoculated with the spore suspension at a concentration of 10^5 spores per ml.
The efficacy of the compounds is assessed by OD measurement at 620 nm after 5 days at 20° C. in comparison with a control.

Take `O=C(NOCc1ncc(C(F)(F)F)cc1Cl)c1c(Cl)cccc1Cl` [Compound 501, 2,6-dichloro-N-{[3-chloro-5-(trifluoromethyl)pyridin-2-yl]methoxy}benzamide]: the activity entry is listed as “did not show any activity”.
Under `O=C(NOCc1ncc(C(F)(F)F)cc1Cl)c1c(F)cccc1F` [Compound 502, N-{[3-chloro-5-(trifluoromethyl)pyridin-2-yl]methoxy}-2,6-difluorobenzamide] stands “did not show any activity”.
